Data: patent publication US4461775A, “Hydroxythioether fatty acid derivatives” (McNeilab, Inc., priority 1982, dated 1984)

How the values were obtained:
[1] = system: guinea pig parenchymal strip (immunological release of SRS-A); test: guinea pig parenchymal strip: prevention of the contraction of guinea pig parenchymal tissue by immunological release of SRS-A; assay type: cell-based; conditions: Cavia porcellus; egg albumin challenge of sensitized guinea pig lung strip; chlorpheniramine (10^-4 M), indomethacin (10^-5 M), test compound 30 minutes prior
Experimental: The guinea pigs were sacrificed and lungs removed. Strips of subpleural parenchyma were prepared from the left and right diaphragmatic lobes and suspended in a tissue bath under 1 g of tension. After a one hour equilibration period, a dose response to histamine (10^-7 to 10^-4 M) induced contractions was performed to determine maximal contraction. The tissues were then washed and allowed to relax to baseline. Chlorpheniramine (10^-4 M), indomethacin (10^-5 M) and test compound were added 30 minutes prior to challenge with egg albumin. The response to antigen was measured in milligrams of tension.

[2] = system: guinea pig ileum (SRS-A induced contraction); test: guinea pig ileum: prevention of the contraction of guinea pig ileum caused by SRS-A; assay type: cell-based; conditions: Cavia porcellus; SRS-A induced contraction of isolated guinea pig ileum; atropine and chlorpheniramine (1×10^-5 M) present; read-out: G.P. Ileum IC50
Experimental: The tissue is exposed to 5 mg/ml histamine at 1-3 minute intervals until a reproducible response is obtained. Atropine (1×10^-5 M) and chlorpheniramine (1×10^-5 M) are added followed by 1-2 biological units of SRS-A. After washing the tissue, the response to BaCl2 (1×10^-3 M) was also noted.

CCCCCCCCCCC[C@H](O)[C@H](CCCCC(=O)O)SCCC(=O)O (relative stereo) [Example 2, Threo 6-(2-Carboxyethyl)thio-7-hydroxyoctadecanoic Acid]
IC50 [1]: 80 µM
IC50 [2]: 0.24 µM

CCCCCCCCCCCC(O)C(CCCCC(=O)OC)SC[C@H](N)C(=O)OC (stereo partly drawn) [Example 3, Threo S-(6-Hydroxy-1-methoxycarbonyl-5-heptadecyl)-L-cysteine Methyl Ester]
IC50 [1]: > 100 µM
IC50 [2]: 1.3 µM

CCCCCCCCCCC[C@H](O)[C@@H](CCCCC(=O)OC)SCCC(=O)OC (relative stereo) [Example 4, Erythro Methyl 7-Hydroxy-6-{[2-(methoxycarbonyl)ethyl]-thio}octadecanoate]
IC50 [1]: 10 µM

CCCCCCCCCCC[C@H](O)[C@H](CCCCC(=O)OC)SCCC(=O)OC (relative stereo) [Example 1, Threo Methyl 7-Hydroxy-6{[2-(methoxycarbonyl)ethyl]thio}octadecanoate]
IC50 [1]: > 100 µM
IC50 [2]: 1 µM
